Measurements taken from PubChem BioAssay AID216 (DTP/NCI, 2004).
Where “and” joins values, the source holds several entries; their conditions need not be identical. Identical values can stand only once. Toxic doses and inconclusive results are not listed.

Tested on: BDF1 mice, P288 leukemia ip, survival T/C
Assay: NCI In Vivo Anticancer Drug Screen. Data for tumor model P288 Lymphocytic Leukemia (intraperitoneal) in B6D2F1 (BDF1) mice
Settings: endpoint: survival time, mean or median, higher = longer survival
Experimental: The antitumor activity of compounds was measured in mice bearing transplantable tumors. Survival or tumor size were measured and the results are expressed as the measurement made in the treated group (T) divided by the measurement made in the vehicle treated control group (C). The tumor model used in this assay is P288 Lymphocytic Leukemia (intraperitoneal) in B6D2F1 (BDF1) mice

[1] = dose: 8.0 mg/kg/injection, schedule: Q01DX010 (ip), vehicle: saline
[2] = dose: 16.0 mg/kg/injection, schedule: Q01DX010 (ip), vehicle: saline
[3] = dose: 25.0 mg/kg/injection, schedule: Q01DX010 (ip), vehicle: saline
[4] = dose: 50.0 mg/kg/injection, schedule: Q01DX010 (ip), vehicle: saline
[5] = dose: 100.0 mg/kg/injection, schedule: Q01DX010 (ip), vehicle: saline
[6] = dose: 200.0 mg/kg/injection, schedule: Q01DX010 (ip), vehicle: saline
[7] = dose: 3.1 mg/kg/injection, schedule: Q01DX Z (ip), vehicle: carboxymethylcellulose (CMC)
[8] = dose: 6.25 mg/kg/injection, schedule: Q01DX Z (ip), vehicle: carboxymethylcellulose (CMC)
[9] = dose: 10.0 mg/kg/injection, schedule: Q01DX010 (ip), vehicle: saline
[10] = dose: 12.5 mg/kg/injection, schedule: Q01DX Z (ip), vehicle: carboxymethylcellulose (CMC)
[11] = dose: 20.0 mg/kg/injection, schedule: Q01DX010 (ip), vehicle: saline
[12] = dose: 25.0 mg/kg/injection, schedule: Q01DX Z (ip), vehicle: carboxymethylcellulose (CMC)
[13] = dose: 40.0 mg/kg/injection, schedule: Q01DX010 (ip), vehicle: saline
[14] = dose: 400.0 mg/kg/injection, schedule: Q01DX010 (ip), vehicle: saline

`CCn1cnc2c(=S)nc[nH]c21` was tested, and the T/C (dose: 15.6 mg/kg/injection, schedule: Q01DX Z (ip), vehicle: carboxymethylcellulose (CMC)) was 92 % of control, the T/C (dose: 31.25 mg/kg/injection, schedule: Q01DX Z (ip), vehicle: carboxymethylcellulose (CMC)) was 92 % of control and the T/C (dose: 62.5 mg/kg/injection, schedule: Q01DX010 (ip), vehicle: saline) was 90 % of control. The T/C (dose: 62.5 mg/kg/injection, schedule: Q01DX Z (ip), vehicle: carboxymethylcellulose (CMC)) was 93 % of control and the T/C (dose: 125.0 mg/kg/injection, schedule: Q01DX010 (ip), vehicle: saline) was 90 % of control.
For `c1ccc(CNc2ncnc3[nH]ncc23)cc1`, the T/C (dose: 1.95 mg/kg/injection, schedule: Q01DX Z (ip), vehicle: carboxymethylcellulose (CMC)) was 91 % of control, the T/C (dose: 3.9 mg/kg/injection, schedule: Q01DX Z (ip), vehicle: carboxymethylcellulose (CMC)) was 97 % of control and the T/C (dose: 7.8 mg/kg/injection, schedule: Q01DX Z (ip), vehicle: carboxymethylcellulose (CMC)) was 90 % of control. For the same molecule, the T/C [1] was 121 % of control and 93 % of control, the T/C [2] was 112 % of control and 114 % of control and the T/C (dose: 32.0 mg/kg/injection, schedule: Q01DX010 (ip), vehicle: saline) was 118 % of control.
With `CCN(CC)CCNc1ccc(C)c2sc3ccccc3c(=O)c12` the T/C [3] was 110 % of control, the T/C [4] was 205 % of control and the T/C (dose: 51.0 mg/kg/injection, schedule: Q01DX010 (ip), vehicle: saline) was 155 % of control. For the same molecule, the T/C [5] was 180 % of control.
With `CO[C@@H]1[C@@H](OC2OC(C)C(OC3CC(C)(O)C(OC(=O)CC(C)C)C(C)O3)C(N(C)C)C2O)[C@@H](CC=O)C[C@@H](C)C(=O)/C=C/C2O[C@H]2C[C@@H](C)OC(=O)C[C@H]1OC(C)=O` (some centres undefined) the T/C (dose: 37.5 mg/kg/injection, schedule: Q01DX010 (ip), vehicle: saline) was 94 % of control, the T/C [4] was 112 % of control and the T/C (dose: 75.0 mg/kg/injection, schedule: Q01DX010 (ip), vehicle: saline) was 88 % of control. For the same molecule, the T/C [5] was 162 % of control, the T/C (dose: 150.0 mg/kg/injection, schedule: Q01DX010 (ip), vehicle: saline) was 88 % of control and the T/C [6] was 168 % of control. The T/C (dose: 300.0 mg/kg/injection, schedule: Q01DX010 (ip), vehicle: saline) was 100 % of control.
`C[C@H]1C(=O)O[C@@H]2CCN3CC=C(COC(=O)[C@](C)(O)[C@@]1(C)O)[C@H]23` was tested, and the T/C (dose: 0.99 mg/kg/injection, schedule: Q01DX Z (ip), vehicle: carboxymethylcellulose (CMC)) was 97 % of control, the T/C (dose: 1.88 mg/kg/injection, schedule: Q01DX Z (ip), vehicle: carboxymethylcellulose (CMC)) was 94 % of control and the T/C (dose: 3.13 mg/kg/injection, schedule: Q01DX010 (ip), vehicle: saline) was 100 % of control. For the same molecule, the T/C (dose: 3.75 mg/kg/injection, schedule: Q01DX Z (ip), vehicle: carboxymethylcellulose (CMC)) was 90 % of control, the T/C (dose: 6.25 mg/kg/injection, schedule: Q01DX010 (ip), vehicle: saline) was 100 % of control and the T/C (dose: 12.5 mg/kg/injection, schedule: Q01DX010 (ip), vehicle: saline) was 121 % of control and 87 % of control. The T/C [3] was 115 % of control and 100 % of control and the T/C [4] was 94 % of control.
With `S=P(N1CCOCC1)(N1CC1)N1CC1` the T/C [7] was 92 % of control, the T/C [8] was 119 % of control and the T/C [9] was 95 % of control. For the same molecule, the T/C [10] was 90 % of control, the T/C [11] was 95 % of control and the T/C [12] was 86 % of control.
`CC1CCOS(=O)O1` (centres undefined) was tested, and the T/C [9] was 88 % of control, the T/C [11] was 100 % of control and the T/C [13] was 100 % of control.
For `Cc1cc2nc3c(=O)[nH]c(=O)nc-3n(CC(O)C(O)C(O)C(O)CO)c2cc1C` (centres undefined), the T/C [3] was 100 % of control, the T/C [4] was 118 % of control and the T/C [5] was 106 % of control and 94 % of control. The T/C [6] was 106 % of control and 94 % of control and the T/C [14] was 112 % of control.
With `C[n+]1c2ccccc2nc2c(N)cc(N)cc21` the T/C [7] was 114 % of control, the T/C [8] was 97 % of control and the T/C (dose: 6.3 mg/kg/injection, schedule: Q01DX Z (ip), vehicle: carboxymethylcellulose (CMC)) was 115 % of control. For the same molecule, the T/C [10] was 104 % of control and 105 % of control and the T/C [12] was 117 % of control and 96 % of control.
In the case of `O=C1CCC(N2C(=O)c3ccccc3C2=O)C(=O)N1` (centres undefined), the T/C (dose: 18.75 mg/kg/injection, schedule: Q01DX Z (ip), vehicle: carboxymethylcellulose (CMC)) is reported as 91 % of control, the T/C (dose: 37.5 mg/kg/injection, schedule: Q01DX Z (ip), vehicle: carboxymethylcellulose (CMC)) is reported as 94 % of control and the T/C (dose: 75.0 mg/kg/injection, schedule: Q01DX Z (ip), vehicle: carboxymethylcellulose (CMC)) is reported as 97 % of control. The T/C (dose: 150.0 mg/kg/injection, schedule: Q01DX Z (ip), vehicle: carboxymethylcellulose (CMC)) was 101 % of control and 88 % of control, the T/C (dose: 300.0 mg/kg/injection, schedule: Q01DX Z (ip), vehicle: carboxymethylcellulose (CMC)) was 94 % of control and the T/C (dose: 600.0 mg/kg/injection, schedule: Q01DX Z (ip), vehicle: carboxymethylcellulose (CMC)) was 87 % of control.
In the case of `O=c1cnn(C2OC(CO)C(O)C2O)c(=O)[nH]1` (centres undefined), the T/C (dose: 15.62 mg/kg/injection, schedule: Q01DX Z (ip), vehicle: water) is reported as 101 % of control, the T/C (dose: 31.25 mg/kg/injection, schedule: Q01DX Z (ip), vehicle: water) is reported as 101 % of control and the T/C (dose: 62.5 mg/kg/injection, schedule: Q01DX Z (ip), vehicle: water) is reported as 104 % of control. For the same molecule, the T/C (dose: 125.0 mg/kg/injection, schedule: Q01DX Z (ip), vehicle: water) was 113 % of control and 95 % of control, the T/C [6] was 111 % of control and 112 % of control and the T/C (dose: 250.0 mg/kg/injection, schedule: Q01DX Z (ip), vehicle: water) was 103 % of control and 123 % of control. For the same molecule, the T/C [14] was 118 % of control, the T/C (dose: 500.0 mg/kg/injection, schedule: Q01DX Z (ip), vehicle: water) was 94 % of control and the T/C (dose: 800.0 mg/kg/injection, schedule: Q01DX010 (ip), vehicle: saline) was 122 % of control. For the same molecule, the T/C (dose: 1000.0 mg/kg/injection, schedule: Q01DX Z (ip), vehicle: water) was 103 % of control and the T/C (dose: 1600.0 mg/kg/injection, schedule: Q01DX010 (ip), vehicle: saline) was 112 % of control and 94 % of control.
In the case of `CN(C)c1ccc(/C=C/c2ccnc3ccccc23)cc1`, the T/C (dose: 0.2 mg/kg/injection, schedule: Q01DX Z (ip), vehicle: water) is reported as 117 % of control, the T/C (dose: 0.8 mg/kg/injection, schedule: Q01DX Z (ip), vehicle: water) is reported as 98 % of control and the T/C (dose: 1.6 mg/kg/injection, schedule: Q01DX Z (ip), vehicle: water) is reported as 92 % of control. The T/C (dose: 3.1 mg/kg/injection, schedule: Q01DX Z (ip), vehicle: water) was 91 % of control, the T/C (dose: 5.0 mg/kg/injection, schedule: Q01DX010 (ip), vehicle: saline) was 88 % of control and the T/C [8] was 108 % of control. For the same molecule, the T/C (dose: 6.3 mg/kg/injection, schedule: Q01DX Z (ip), vehicle: water) was 87 % of control, the T/C [9] was 88 % of control and 90 % of control and the T/C [10] was 108 % of control. The T/C [11] was 88 % of control, the T/C [12] was 114 % of control and the T/C [13] was 88 % of control and 90 % of control. The T/C (dose: 50.0 mg/kg/injection, schedule: Q01DX Z (ip), vehicle: carboxymethylcellulose (CMC)) was 111 % of control.
With `CC(CCC(C)OS(C)(=O)=O)OS(C)(=O)=O` (centres undefined) the T/C (dose: 0.63 mg/kg/injection, schedule: Q01DX Z (ip), vehicle: carboxymethylcellulose (CMC)) was 100 % of control, the T/C (dose: 1.25 mg/kg/injection, schedule: Q01DX Z (ip), vehicle: carboxymethylcellulose (CMC)) was 88 % of control and the T/C (dose: 2.0 mg/kg/injection, schedule: Q01DX010 (ip), vehicle: saline) was 90 % of control. For the same molecule, the T/C (dose: 2.5 mg/kg/injection, schedule: Q01DX Z (ip), vehicle: carboxymethylcellulose (CMC)) was 105 % of control, the T/C (dose: 4.0 mg/kg/injection, schedule: Q01DX010 (ip), vehicle: saline) was 90 % of control and the T/C (dose: 5.0 mg/kg/injection, schedule: Q01DX Z (ip), vehicle: carboxymethylcellulose (CMC)) was 114 % of control. For the same molecule, the T/C [1] was 100 % of control, the T/C (dose: 10.0 mg/kg/injection, schedule: Q01DX Z (ip), vehicle: carboxymethylcellulose (CMC)) was 107 % of control and the T/C [2] was 104 % of control and 105 % of control and 90 % of control. The T/C (dose: 20.0 mg/kg/injection, schedule: Q01DX Z (ip), vehicle: carboxymethylcellulose (CMC)) was 90 % of control.
